Like-named read-outs stand apart in the source and are kept apart here. Where only a bound is given, the exact number is not on record here.

In general, solubility refers to the concentration that dissolves in the medium under given conditions.

This series is described as follows: Solubility of the crystalline compounds in aqueous media. Type of series: physicochemical.

Turning to `Cc1ccccc1-c1cc(N2CCOCC2)ncc1N(C)C(=O)C(C)(C)c1cc(C(F)(F)F)cc(C(F)(F)F)c1` [2-(3,5-bis-trifluoromethyl-phenyl)-N-methyl-N-(6-morpholin-4-yl-4-o-tolyl-pyridin-3-yl)-isobutyramide], the solubility reads like this: (aqueous buffer solutions of pH 3.0-7.0, read-out: solubility in aqueous buffer solutions) below 0.1 µg/mL; (water, 'above noted insolubilities', read-out: solubility in water) below 0.1 µg/mL.
